Consider 27 compounds from PMC4890880 (ACS infectious diseases, 2016).

Read-outs that look alike come from different tables or passages of the source.

The test system of data set [1] is HepG2-A16-CD81EGFP cells. As to the kind of experiment: cells. Conditions: Homo sapiens, HepG2, read-out: % inhibition.
Data set [2] has as its system HepG2-A16-CD81EGFP cells. Description: cells. Conditions: Homo sapiens, HepG2, read-out: % inhibition. This is another data set of the same source.
The subject of data set [3] is Plasmodium berghei (Pb-Luc) exoerythrocytic-stage parasites. Description: microbe, parasite or virus in culture.
Data set [4] deals with HepG2-A16-CD81EGFP cells. The conditions noted are these: human, 50 uM.
Where [5] appears, read: read-out: Inhibition% @ 50 uM rep1.
The mark [6] stands for this setting: read-out: Inhibition% @ 50 uM rep2.

The term inhibition denotes the relative decrease from the control value, in per cent. As to `CN(C)CCCNc1c2ccccc2nc2ccccc12` [MMV000448], the inhibition at 50 µM is 96.8% in data set [1], 99.5% in data set [2], 103% in data set [3] (setting [5]) and 106% in data set [3] (setting [6]). The “HepG2 Tox% @ 50 uM rep2” value in data set [4] is 100%.
As for `CCCN(CCC)CCCNC(=O)c1cc2c(-c3ccc(OC)c(OC)c3)nn(C)c2s1` [MMV000561], the inhibition at 50 µM in data set [1] was 98.1%; in data set [2], 100%; in data set [3] (setting [5]) it was 104%; in data set [3] (setting [6]), 106%. In addition, in data set [4], the “HepG2 Tox% @ 50 uM rep2” value was found to be 100%.
`CCCN(CCC)CC(O)COc1ccccc1C(=O)Nc1ccccc1` (stereo not drawn) [MMV006455]: the inhibition at 50 µM in data set [1] was -8.15%; in data set [2], 7.57%; in data set [3] (setting [5]) it was 84%; in data set [3] (setting [6]), 75%. Further, the “HepG2 Tox% @ 50 uM rep1” value in data set [4] is recorded as -8%.
For the compound `Cc1cc(N2CCN(C3CCCC3)CC2)n2c(nc3ccccc32)c1C#N` [MMV006706], the inhibition at 50 µM was -9.81% in data set [1], -11.2% in data set [2], 48% in data set [3] (setting [5]) and 24% in data set [3] (setting [6]). In data set [4], the “HepG2 Tox% @ 50 uM rep1” value is listed as -10%. The “HepG2 Tox% @ 50 uM rep2” value in data set [4] was -11%.
For `COc1cc2cc(C(=O)Nc3ccccc3)c(N)nc2cc1OC` [MMV006767], the inhibition at 50 µM turned out to be 18.2% in data set [1], 10.2% in data set [2], 73% in data set [3] (setting [5]) and 39% in data set [3] (setting [6]). In addition, in data set [4], the “HepG2 Tox% @ 50 uM rep2” value stood at 10%.
With `COc1cccc(NC(=O)Cn2c(C)c(C#N)c3ccccc32)c1` [MMV665826], the inhibition at 50 µM in data set [1] was 49.1%; in data set [2], 77.8%; in data set [3] (setting [5]), 102%; in data set [3] (setting [6]) it was 101%.
Regarding `Oc1ccc(Cl)cc1CNc1nc2ccccc2[nH]1` [MMV665850], the inhibition at 50 µM in data set [1] turned out to be 98.1%; in data set [2], 98.7%; in data set [3] (setting [5]), 103%; in data set [3] (setting [6]) it was 104%.
The corresponding values for `CCOc1ccc(-c2nc(NC(=O)c3cccc(S(C)(=O)=O)c3)sc2C)cc1` [MMV665913] are 60.5%, 62.9%, 95% and 98%.
The corresponding values for `COc1ccccc1N1CCN(C(CNS(=O)(=O)c2ccc(Cl)cc2)c2cccnc2)CC1` (stereo not drawn) [MMV665914] are 49.3%, 59.7%, 96% and 96%.
As to `COc1ccc(-c2nc(NC(=O)CS(=O)(=O)c3ccc(F)cc3)sc2C)cc1` [MMV665915], the inhibition at 50 µM in data set [1] amounted to 92.4%; in data set [2], 95.2%; in data set [3] (setting [5]), 101%; in data set [3] (setting [6]), 100%.
Taken in the same sequence, the figures for `O=C(Nc1ccc(Cl)cc1)N1CCN(c2ccc3nncn3n2)CC1` [MMV665917] were 38.3%, 8.42%, 60% and 62%.
The corresponding values for `O=C(CSc1ccc2nnc(-c3cccc(F)c3)n2n1)Nc1ccc2c(c1)OCO2` [MMV665918] are -2.83%, 0.859%, -43% and -48%.
For the compound `CCCCNCC(O)(c1ccc(Cl)cc1)c1ccc(Cl)cc1` [MMV665929], the inhibition at 50 µM in data set [1] was 95.9%; in data set [2], 99.2%; in data set [3] (setting [5]) it was 104%; in data set [3] (setting [6]), 105%.
The corresponding values for `O=C(Nc1ccsc1C(=O)NC1CCCCC1)c1ccc(F)cc1` [MMV665939] are 25.8%, 35%, 71% and 43%.
Taken in the same sequence, the figures for `CCN(CC)CCCNc1nc(-c2ccc(Cl)cc2)nc2ccccc12` [MMV665961] were 95%, 87.3%, 101% and 103%.
The corresponding values for `CN1c2ccccc2N(C)C1c1ccc2c(c1)OCO2` [MMV666009] are 81.6%, 81%, 102% and 105%.
In the case of `O=C(Nc1ccc(Cl)cc1C(=O)Nc1ccncc1)c1ccc(Cl)cc1Cl` [MMV666057], the inhibition at 50 µM in data set [1] was found to be 78.3%; in data set [2], 94.5%; in data set [3] (setting [5]) it was 101%; in data set [3] (setting [6]) it was 102%.
The corresponding values for `COc1cccc(O)c1CN1CCC2(CCCN(Cc3ccc(F)cc3)C2)C1` (stereo not drawn) [MMV666061] are 96.5%, 98.8%, 103% and 103%.
Taken in the same sequence, the figures for `Cc1ccc(CN2CCC(C(=O)Nc3ccc(-c4cc5ccccc5[nH]4)cc3)CC2)o1` [MMV666071] were 42.7%, 43.9%, 98% and 96%.
Regarding `COc1ccc(C2N(C)c3ccccc3N2C)cc1` [MMV666075], the inhibition at 50 µM in data set [1] turned out to be 76.8%; in data set [2], 84.3%; in data set [3] (setting [5]), 101%; in data set [3] (setting [6]) it was 98%.
On to `CCn1c(SCC(=O)Nc2cc(C(F)(F)F)ccc2Cl)nc2ccccc2c1=O` [MMV666103], for which the inhibition at 50 µM in data set [1] is -3.72%; in data set [2], -0.573%; in data set [3] (setting [5]), 69%; in data set [3] (setting [6]), 87%.
The corresponding values for `O=C(CCc1ccco1)NC1CCN(CC2(c3ccc(Cl)cc3)CCC2)CC1` [MMV666108] are 54.1%, 67.1%, 101% and 102%.
The corresponding values for `Oc1ccccc1CN1CCC2(CCCN(Cc3ccccc3F)C2)C1` (stereo not drawn) [MMV666116] are 73.5%, 85.7%, 98% and 100%.
`CSC1=NC(=Nc2c(C)cccc2C)C2(CCC(C(C)(C)C)CC2)N1c1ccc(Cl)cc1` (stereo not drawn) [MMV666596]: the inhibition at 50 µM in data set [1] is 88.7%; in data set [2] it was 89.2%; in data set [3] (setting [5]) it was 104%; in data set [3] (setting [6]) it was 106%.
For `CCOC(=O)c1c(C)n(-c2ccc(Cl)cc2)c2ccc(OC(=O)C=Cc3ccccc3)cc12` [MMV666600], the inhibition at 50 µM in data set [1] was determined as 70.5%; in data set [2] it was 68.1%; in data set [3] (setting [5]), 104%; in data set [3] (setting [6]), 104%.
Consider `CCOC(=O)C1=C(c2ccccc2)N=c2sc(=Cc3cc(C)n(-c4ccc(F)cc4)c3C)c(=O)n2C1c1cccc(OC)c1OC` (stereo not drawn) [MMV666601], for which the inhibition at 50 µM in data set [1] was -7.05%; in data set [2], 8.55%; in data set [3] (setting [5]), 84%; in data set [3] (setting [6]), 87%.
Consider `COc1ccc(C=C2SC(=N)N(c3ccccc3OC)C2=O)cc1` [MMV666691], for which the inhibition at 50 µM in data set [1] was 94.9%; in data set [2], 98.5%; in data set [3] (setting [5]) it was 103%; in data set [3] (setting [6]), 104%.
